pIC50: −log10 of the molar value.

In test [1] the target is Acetylcholinesterase (Electrophorus electricus, UniProt O42275). The test can be described thus: Anticholinesterase Activity Assays. To be noted: pH 8. How it is done: (§1) The substrates of the reaction were acetylthiocholine iodide and butyrylthiocholine iodide. 5,5'-dithio-bis(2-nitrobenzoic) acid (DTNB) was used for the measurement of the anticholinesterase activity. The solutions of the samples and galantamine in n-propanol were prepared at concentration of 4000 µg/mL. […] 10 µL of DTNB solution was prepared by adding 2.0 mL of pH 7.0 and 4.0 mL of pH 8.0 phosphate buffers to a mixture of 1.0 mL of 16 mg/mL DTNB and 7.5 mg/mL NaHCO3 in pH 7.0 phosphate buffers. The reaction was initiated by the addition of 10 µL (7.1 mM) acetylthiocholine iodide (or 0.79 mM butyrylthiocholine iodide). Propyl alcohol was used as a solvent to controls. The hydrolysis of these substrates was monitored at 412 nm.
Acetylcholinesterase, sequence (O42275 whole entry): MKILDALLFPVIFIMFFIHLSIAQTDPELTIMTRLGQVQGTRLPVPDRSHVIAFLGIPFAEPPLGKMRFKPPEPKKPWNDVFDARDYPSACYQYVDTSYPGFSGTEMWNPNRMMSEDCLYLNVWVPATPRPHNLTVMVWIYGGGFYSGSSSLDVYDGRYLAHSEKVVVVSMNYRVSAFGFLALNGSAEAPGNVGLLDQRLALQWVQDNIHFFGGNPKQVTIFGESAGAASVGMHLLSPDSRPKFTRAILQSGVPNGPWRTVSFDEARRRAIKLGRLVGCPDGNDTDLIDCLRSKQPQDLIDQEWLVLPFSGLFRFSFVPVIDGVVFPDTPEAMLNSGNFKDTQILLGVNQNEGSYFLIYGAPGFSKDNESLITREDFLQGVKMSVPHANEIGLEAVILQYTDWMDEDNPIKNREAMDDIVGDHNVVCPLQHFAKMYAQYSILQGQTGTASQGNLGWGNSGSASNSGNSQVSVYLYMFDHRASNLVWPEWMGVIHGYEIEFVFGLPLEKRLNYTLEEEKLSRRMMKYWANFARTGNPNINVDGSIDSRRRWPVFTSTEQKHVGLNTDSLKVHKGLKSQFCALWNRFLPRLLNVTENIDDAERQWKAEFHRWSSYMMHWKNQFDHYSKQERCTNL

Test [2] addresses Carboxylic ester hydrolase (Equus caballus, UniProt Q9N1N9). The test can be described thus: Anticholinesterase Activity Assays. To be noted: pH 8. The protocol:
as §1

Carboxylic ester hydrolase, sequence (Q9N1N9 whole entry): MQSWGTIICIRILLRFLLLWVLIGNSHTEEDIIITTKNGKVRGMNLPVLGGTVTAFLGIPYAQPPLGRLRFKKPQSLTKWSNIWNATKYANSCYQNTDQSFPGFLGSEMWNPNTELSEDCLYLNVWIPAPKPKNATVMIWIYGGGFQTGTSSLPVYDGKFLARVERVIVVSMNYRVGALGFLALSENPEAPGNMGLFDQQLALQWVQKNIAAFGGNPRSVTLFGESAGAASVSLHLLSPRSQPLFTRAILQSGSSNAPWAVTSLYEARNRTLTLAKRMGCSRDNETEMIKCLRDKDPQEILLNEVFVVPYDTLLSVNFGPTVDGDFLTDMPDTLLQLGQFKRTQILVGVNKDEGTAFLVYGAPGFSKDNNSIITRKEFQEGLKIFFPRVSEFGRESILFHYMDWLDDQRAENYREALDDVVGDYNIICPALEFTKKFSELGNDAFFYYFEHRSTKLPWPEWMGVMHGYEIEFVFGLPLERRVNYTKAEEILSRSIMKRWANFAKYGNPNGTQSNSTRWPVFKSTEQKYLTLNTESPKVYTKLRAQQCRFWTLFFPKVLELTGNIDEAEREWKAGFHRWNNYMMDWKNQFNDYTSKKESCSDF

By pIC50 is commonly meant the IC50 on a negative log10 scale, so that one unit is a factor of ten. A lower pIC50 goes with a high IC50. With `COc1cccc2cc(-c3csc(NC(=O)Nc4ccccc4F)n3)c(=O)oc12` [1-(2-Fluorophenyl)-3-(4-(8-methoxy-2-oxo-2H-chromen-3-yl)thiazol-2-yl)urea (e20)], the pIC50 is 4.18 in test [1] and 4.10 in test [2].
In the same order, the values of `O=C(Nc1nc(-c2cc3ccccc3oc2=O)cs1)Nc1ccccc1F` [1-(2-Flurophenyl)-3-(4-(2-oxo-2H-chromen-3-yl)thiazol-2-yl)urea (e7)] are 4.50 and 4.46.
The corresponding values for `COc1ccccc1NC(=O)Nc1nc(-c2cc3ccccc3oc2=O)cs1` [1-(2-Methoxyphenyl)-3-(4-(2-oxo-2H-chromen-3-yl)thiazol-2-yl)urea (e1)] are 4.42 and 4.52.
In the same order, the values of `O=C(Nc1cccc(Cl)c1)Nc1nc(-c2cc3ccccc3oc2=O)cs1` [1-(3-Chlorophenyl)-3-(4-(2-oxo-2H-chromen-3-yl)thiazol-2-yl)urea (e10)] are 3.95 and 4.18.
In the case of `O=c1oc2ccccc2cc1-c1csc(NC(=S)Nc2cccc(F)c2)n1` [1-(3-Fluorophenyl)-3-(4-(2-oxo-2H-chromen-3-yl)thiazol-2-yl)thiourea (f1)], the pIC50 in test [1] is 4.78; in test [2], 4.68.
In the same order, the values of `O=C(Nc1cccc(F)c1)Nc1nc(-c2cc3ccccc3oc2=O)cs1` [1-(3-Fluorophenyl)-3-(4-(2-oxo-2H-chromen-3-yl)thiazol-2-yl)urea (e8)] are 4.24 and 4.21.
The corresponding values for `COc1cccc2cc(-c3csc(NC(=O)Nc4cccc(F)c4)n3)c(=O)oc12` [1-(3-Fluorophenyl)-3-(4-(8-methoxy-2-oxo-2H-chromen-3-yl)thiazol-2-yl)urea (e21)] are 4.17 and 3.96.
In the same order, the values of `COc1cccc(NC(=O)Nc2nc(-c3cc4ccccc4oc3=O)cs2)c1` [1-(3-Methoxyphenyl)-3-(4-(2-oxo-2H-chromen-3-yl)thiazol-2-yl)urea (e2)] are 4.28 and 4.12.
Take `COc1cccc(NC(=O)Nc2nc(-c3cc4cc([N+](=O)[O-])ccc4oc3=O)cs2)c1` [1-(3-Methoxyphenyl)-3-(4-(6-nitro-2-oxo-2H-chromen-3-yl)thiazol-2-yl)urea (e27)]: the pIC50 is 4.41 in test [1] and 4.11 in test [2].
In the same order, the values of `Cc1ccc(NC(=O)Nc2nc(-c3cc4cc([N+](=O)[O-])ccc4oc3=O)cs2)cc1` [1-(4-(6-Nitro-2-oxo-2H-chromen-3-yl)thiazol-2-yl)-3-(ptolyl)urea (e29)] are 4.03 and 3.71.
The corresponding values for `O=C(Nc1ccccc1)Nc1nc(-c2cc3cc([N+](=O)[O-])ccc3oc2=O)cs1` [1-(4-(6-Nitro-2-oxo-2H-chromen-3-yl)thiazol-2-yl)-3-phenylurea (e30)] are 3.99 and 4.07.
The corresponding values for `COc1cccc2cc(-c3csc(NC(=O)Nc4cccc(Cl)c4)n3)c(=O)oc12` [1-(4-(8-Methoxy-2-oxo-2H-chromen-3-yl)thiazol-2-yl)-3-(3-chlorophenyl)urea (e23)] are 3.98 and 4.20.
For the compound `COc1cccc2cc(-c3csc(NC(=S)Nc4cccc(F)c4)n3)c(=O)oc12` [1-(4-(8-Methoxy-2-oxo-2H-chromen-3-yl)thiazol-2-yl)-3-(3-fluorophenyl)thiourea (f6)], the pIC50 in test [1] and in test [2] was 4.74 each time.
Regarding `COc1cccc(NC(=O)Nc2nc(-c3cc4cccc(OC)c4oc3=O)cs2)c1` [1-(4-(8-Methoxy-2-oxo-2H-chromen-3-yl)thiazol-2-yl)-3-(3-methoxyphenyl)urea (e14)], the results for the pIC50 in test [1] and in test [2] were 4.08 and 4.25, respectively.
In the same order, the values of `COc1cccc2cc(-c3csc(NC(=O)Nc4cccc([N+](=O)[O-])c4)n3)c(=O)oc12` [1-(4-(8-Methoxy-2-oxo-2H-chromen-3-yl)thiazol-2-yl)-3-(3-nitrophenyl)urea (e18)] are 4.05 and 4.11.
In the same order, the values of `COc1cccc2cc(-c3csc(NC(=S)Nc4ccc(Cl)cc4)n3)c(=O)oc12` [1-(4-(8-Methoxy-2-oxo-2H-chromen-3-yl)thiazol-2-yl)-3-(4-chlorophenyl)thiourea (f8)] are 5.34 and 4.92.
For `COc1cccc2cc(-c3csc(NC(=O)Nc4ccc(Cl)cc4)n3)c(=O)oc12` [1-(4-(8-Methoxy-2-oxo-2H-chromen-3-yl)thiazol-2-yl)-3-(4-chlorophenyl)urea (e24)], the negative-log IC50 (pIC50) is 3.97 in test [1] and 4.15 in test [2].
The corresponding values for `COc1cccc2cc(-c3csc(NC(=S)Nc4ccc(F)cc4)n3)c(=O)oc12` [1-(4-(8-Methoxy-2-oxo-2H-chromen-3-yl)thiazol-2-yl)-3-(4-fluorophenyl)thiourea (f7)] are 4.63 and 4.34.
The corresponding values for `COc1ccc(NC(=S)Nc2nc(-c3cc4cccc(OC)c4oc3=O)cs2)cc1` [1-(4-(8-Methoxy-2-oxo-2H-chromen-3-yl)thiazol-2-yl)-3-(4-methoxyphenyl)thiourea (f3)] are 4.39 and 4.51.
For `COc1ccc(NC(=O)Nc2nc(-c3cc4cccc(OC)c4oc3=O)cs2)cc1` [1-(4-(8-Methoxy-2-oxo-2H-chromen-3-yl)thiazol-2-yl)-3-(4-methoxyphenyl)urea (e15)], the negative logarithm of the IC50 (pIC50) in test [1] is 3.92; in test [2], 4.00.
The corresponding values for `COc1cccc2cc(-c3csc(NC(=O)Nc4ccc([N+](=O)[O-])cc4)n3)c(=O)oc12` [1-(4-(8-Methoxy-2-oxo-2H-chromen-3-yl)thiazol-2-yl)-3-(4-nitrophenyl)urea (e19)] are 4.33 and 4.08.
The corresponding values for `COc1cccc2cc(-c3csc(NC(=S)Nc4ccc(C)cc4)n3)c(=O)oc12` [1-(4-(8-Methoxy-2-oxo-2H-chromen-3-yl)thiazol-2-yl)-3-(ptolyl)thiourea (f4)] are 4.29 and 4.44.
In the same order, the values of `COc1cccc2cc(-c3csc(NC(=O)Nc4ccc(C)cc4)n3)c(=O)oc12` [1-(4-(8-Methoxy-2-oxo-2H-chromen-3-yl)thiazol-2-yl)-3-(ptolyl)urea (e16)] are 4.09 and 4.02.
As for `COc1cccc2cc(-c3csc(NC(=S)Nc4ccccc4)n3)c(=O)oc12` [1-(4-(8-Methoxy-2-oxo-2H-chromen-3-yl)thiazol-2-yl)-3-phenylthiourea (f5)], the results for the pIC50 in test [1] and in test [2] were 4.34 and 4.66, respectively.
In the same order, the values of `COc1cccc2cc(-c3csc(NC(=O)Nc4ccccc4)n3)c(=O)oc12` [1-(4-(8-Methoxy-2-oxo-2H-chromen-3-yl)thiazol-2-yl)-3-phenylurea (e17)] are 4.08 and 4.11.
As for `O=C(Nc1ccc(Br)cc1)Nc1nc(-c2cc3ccccc3oc2=O)cs1` [1-(4-Bromophenyl)-3-(4-(2-oxo-2H-chromen-3-yl)thiazol-2-yl)urea (e12)], the pIC50 in test [1] was 3.92; in test [2], 4.02.
The corresponding values for `O=C(Nc1ccc(Br)cc1)Nc1nc(-c2cc3cc([N+](=O)[O-])ccc3oc2=O)cs1` [1-(4-Bromophenyl)-3-(4-(6-nitro-2-oxo-2H-chromen-3-yl)thiazol-2-yl)urea (e33)] are 4.34 and 4.03.
The compound `COc1cccc2cc(-c3csc(NC(=O)Nc4ccc(Br)cc4)n3)c(=O)oc12` [1-(4-Bromophenyl)-3-(4-(8-methoxy-2-oxo-2H-chromen-3-yl)thiazol-2-yl)urea (e25)] showed a pIC50 in test [1] of 4.16.
On to `O=c1oc2ccccc2cc1-c1csc(NC(=S)Nc2ccc(Cl)cc2)n1` [1-(4-Chlorophenyl)-3-(4-(2-oxo-2H-chromen-3-yl)thiazol-2-yl)thiourea (f2)], for which the pIC50 in test [1] is 5.12; in test [2] it was 4.61.
In the same order, the values of `O=C(Nc1ccc(Cl)cc1)Nc1nc(-c2cc3ccccc3oc2=O)cs1` [1-(4-Chlorophenyl)-3-(4-(2-oxo-2H-chromen-3-yl)thiazol-2-yl)urea (e11)] are 4.42 and 4.05.
The corresponding values for `O=C(Nc1ccc(Cl)cc1)Nc1nc(-c2cc3cc([N+](=O)[O-])ccc3oc2=O)cs1` [1-(4-Chlorophenyl)-3-(4-(6-nitro-2-oxo-2H-chromen-3-yl)thiazol-2-yl)urea (e32)] are 3.89 and 4.11.
On to `O=C(Nc1ccc(F)cc1)Nc1nc(-c2cc3ccccc3oc2=O)cs1` [1-(4-Fluorophenyl)-3-(4-(2-oxo-2H-chromen-3-yl)thiazol-2-yl)urea (e9)], for which the pIC50 in test [1] is 4.00; in test [2], 4.07.
In the same order, the values of `O=C(Nc1ccc(F)cc1)Nc1nc(-c2cc3cc([N+](=O)[O-])ccc3oc2=O)cs1` [1-(4-Fluorophenyl)-3-(4-(6-nitro-2-oxo-2H-chromen-3-yl)thiazol-2-yl)urea (e31)] are 3.87 and 5.31.
The corresponding values for `COc1cccc2cc(-c3csc(NC(=O)Nc4ccc(F)cc4)n3)c(=O)oc12` [1-(4-Fluorophenyl)-3-(4-(8-methoxy-2-oxo-2H-chromen-3-yl)thiazol-2-yl)urea (e22)] are 3.94 and 4.20.
The corresponding values for `O=C(Nc1ccc(I)cc1)Nc1nc(-c2cc3ccccc3oc2=O)cs1` [1-(4-Iodophenyl)-3-(4-(2-oxo-2H-chromen-3-yl)thiazol-2-yl)urea (e13)] are 4.04 and 3.95.
Consider `O=C(Nc1ccc(I)cc1)Nc1nc(-c2cc3cc([N+](=O)[O-])ccc3oc2=O)cs1` [1-(4-Iodophenyl)-3-(4-(6-nitro-2-oxo-2H-chromen-3-yl)thiazol-2-yl)urea (e34)], for which the pIC50 in test [1] is 4.57; in test [2] it was 4.01.

The values above are taken from BindingDB's records for doi:10.1016/j.bioorg.2015.02.002 (Bezmialem Vakif University, 2015).
